In patent US11185544B2, “Formulations of 4-methyl-5-(pyrazin-2-yl)-3H-l,2-dithiole-3-thione, taste-modified formulations, and methods of making and using same” (ST IP Holding AG, priority 2016, dated 2021):

Tests used:
[1] = system: reactive oxygen species (ROS) in HGEPp cells; conditions: H2O2-treated cells, 0.3 mM for 4 h
From the text: 2. measure the effect of recrystallized oltipraz amd formulated oltipraz on hydroxyl, peroxyl and other reactive oxygen species within HGEPp cells, using Cell Biolabs' OxiSelect™ Intracellular ROS Assay Kit. This assay employs the cell-permeable fluorogenic probe 2′,7′-dichlorodihydrofluorescein diacetate (DCFH-DA) which diffuses into cells and is deacetylated by cellular esterases to a nonfluorescent DCFH which is then rapidly oxidized to highly fluorescent 2′,7′-dichlorodihydrofluorescein (DCF) by ROS.
Pooled primary HGEPps were propagated in CnT-Prime epithelial culture medium provided by CellnTec on 100 mm petri dishes coated with 30 mg/ml Type I rat tail collagen (BD Biosciences) diluted in Dulbecco's phosphate-buffered saline (DPBS). […] The cells were harvested when they reached 70-90% confluency as observed by light microscopy. For routine cultivation, the medium was changed every 3 days. […]
Oxidative Stress Measurement ROS Assay (OxiSelect Kit) • 1. […] Once the HGEPp cells were cultured and ready on a microplate, the media was removed from all the wells and discarded. […] Fluorescence was read on a Fluorescence Plate Reader after 1 hour. […] Transferred 150 μL of the mixture to a fresh 24-well plate for fluorescence measurements at 530 nm. […]
Intracellular ROS was measured using a Spectramax M3 microplate reader.

[2] = system: primary human gingival epithelial cells (HGEPp); test: cells; conditions: Epithelial cell, 4 h, read-out: IC50 of H2O2 in HGEPp cells
Method: Pooled primary HGEPps were propagated in CnT-Prime epithelial culture medium provided by CellnTec on 100 mm petri dishes coated with 30 mg/ml Type I rat tail collagen (BD Biosciences) diluted in Dulbecco's phosphate-buffered saline (DPBS). […] The cells were harvested when they reached 70-90% confluency as observed by light microscopy. For routine cultivation, the medium was changed every 3 days. For both the cell viability and ROS assays, the cells from passages 3-7 were seeded at 5×0 3, 2.5×10 4, 5×0 4 cells/cm 2 density to grow cell monolayers in 24-well flat-bottomed tissue culture plates and acclimated overnight at 37° C. […]
Cell Survival Assay (TACS MTT Kit) • 1. Plate cell concentration was selected to be 6.25×10^5/ml to yield an OD absorbance within the linear portion of the control curve. • 2. Once the HGEPp cells were cultured and ready on the microplate, the media was removed from all the wells and discarded. […] Removed the plate cover and measured the absorbance of the wells, including the blanks at 570 nm. • 8. Determined the average values from triplicate readings after subtracting the average value for the blanks.
HGEPp cells were exposed to different concentrations of H2O2 for 4 h to examine H2O2-induced oxidative stress. The cells were exposed to 0-0.6 mM H2O2 for 4 h and cell viability was evaluated using the TACS MTT Cell Proliferation Assay Kit. […]

IC50 [2]: 300 µM
Structure (SMILES): OO [Sample H2O2, hydrogen peroxide]
ROS levels compared to normal control cells (100%) [1]: 128%
